{"source": "ChEMBL document CHEMBL1129990", "about": "“Effect of N9-methylation and bridge atom variation on the activity of 5-substituted 2,4-diaminopyrrolo[2,3-d]pyrimidines against dihydrofolate reductases from Pneumocystis carinii and Toxoplasma gondii” (J Med Chem, 1997)", "key": {"[1]": {"target": "T1, Dihydrofolate reductase (Pneumocystis carinii, UniProt P16184)", "T1 sequence (P16184 whole entry)": "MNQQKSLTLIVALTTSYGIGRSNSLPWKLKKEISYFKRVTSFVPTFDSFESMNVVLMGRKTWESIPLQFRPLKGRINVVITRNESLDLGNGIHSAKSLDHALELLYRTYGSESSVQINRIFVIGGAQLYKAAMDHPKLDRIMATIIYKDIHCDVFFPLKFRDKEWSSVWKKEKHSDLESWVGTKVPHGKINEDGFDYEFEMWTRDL", "description": "Inhibition against Dihydrofolate reductase in Pneumocystis carinii"}, "[2]": {"target": "T2, Bifunctional dihydrofolate reductase-thymidylate synthase (Toxoplasma gondii, UniProt Q07422)", "T2 sequence (Q07422 whole entry)": "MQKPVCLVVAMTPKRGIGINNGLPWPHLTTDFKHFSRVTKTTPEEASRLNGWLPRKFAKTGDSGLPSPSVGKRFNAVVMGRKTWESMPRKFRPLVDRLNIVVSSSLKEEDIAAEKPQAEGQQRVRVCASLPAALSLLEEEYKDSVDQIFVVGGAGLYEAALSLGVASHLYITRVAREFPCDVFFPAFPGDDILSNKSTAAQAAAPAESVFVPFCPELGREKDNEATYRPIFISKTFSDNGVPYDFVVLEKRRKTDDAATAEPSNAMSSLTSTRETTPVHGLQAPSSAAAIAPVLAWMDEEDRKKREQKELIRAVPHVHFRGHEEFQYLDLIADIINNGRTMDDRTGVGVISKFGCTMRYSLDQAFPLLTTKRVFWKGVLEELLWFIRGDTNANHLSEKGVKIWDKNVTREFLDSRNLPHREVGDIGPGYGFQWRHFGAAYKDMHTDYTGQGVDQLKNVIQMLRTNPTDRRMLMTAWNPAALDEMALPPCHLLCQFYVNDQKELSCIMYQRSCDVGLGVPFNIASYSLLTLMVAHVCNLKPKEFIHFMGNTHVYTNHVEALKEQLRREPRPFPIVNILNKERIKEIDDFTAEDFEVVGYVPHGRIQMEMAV", "description": "Inhibition against Dihydrofolate reductase in Toxoplasma gondii"}, "[3]": {"target": "T3, Dihydrofolate reductase (Rattus norvegicus, UniProt Q920D2)", "T3 sequence (Q920D2 whole entry)": "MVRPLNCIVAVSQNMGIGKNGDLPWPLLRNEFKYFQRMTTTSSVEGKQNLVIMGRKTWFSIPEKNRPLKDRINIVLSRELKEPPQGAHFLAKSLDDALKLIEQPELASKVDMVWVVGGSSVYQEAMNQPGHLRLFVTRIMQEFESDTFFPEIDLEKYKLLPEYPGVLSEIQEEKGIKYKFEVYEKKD", "description": "Inhibition against Dihydrofolate reductase in rat liver"}}, "data": [{"molecule": "CN(Cc1c[nH]c2nc(N)nc(N)c12)c1ccc(C(=O)N(C)C(CCC(=O)O)C(=O)O)cc1", "note": "(centres undefined)", "values": [{"measurement": "IC50", "setting": "[1]", "value": 0.044, "unit": "µM"}, {"measurement": "IC50", "setting": "[2]", "value": 0.15, "unit": "µM"}, {"measurement": "IC50", "setting": "[3]", "value": 0.06, "unit": "µM"}]}, {"molecule": "Nc1nc(N)c2c(CSc3ccc(Cl)c(Cl)c3)c[nH]c2n1", "values": [{"measurement": "IC50", "setting": "[1]", "value": 58.5, "unit": "µM"}, {"measurement": "IC50", "setting": "[2]", "value": 11.6, "unit": "µM"}, {"measurement": "IC50", "setting": "[3]", "value": 5.3, "unit": "µM"}]}, {"molecule": "COc1ccc(SCc2c[nH]c3nc(N)nc(N)c23)cc1OC", "values": [{"measurement": "IC50", "setting": "[1]", "value": 11.1, "unit": "µM"}, {"measurement": "IC50", "setting": "[2]", "value": 2.6, "unit": "µM"}, {"measurement": "IC50", "setting": "[3]", "value": 16.7, "unit": "µM"}]}, {"molecule": "COc1ccc(OC)c(N(C)Cc2c[nH]c3nc(N)nc(N)c23)c1", "values": [{"measurement": "IC50", "setting": "[1]", "value": "> 12", "unit": "µM"}, {"measurement": "IC50", "setting": "[2]", "value": 3.4, "unit": "µM"}, {"measurement": "IC50", "setting": "[3]", "value": "> 12", "unit": "µM"}]}, {"molecule": "Nc1nc(N)c2c(CSc3cccc4ccccc34)c[nH]c2n1", "values": [{"measurement": "IC50", "setting": "[1]", "value": 10.6, "unit": "µM"}, {"measurement": "IC50", "setting": "[2]", "value": 0.81, "unit": "µM"}, {"measurement": "IC50", "setting": "[3]", "value": 3, "unit": "µM"}]}, {"molecule": "Nc1nc(N)c2c(CSc3ccc4ccccc4c3)c[nH]c2n1", "values": [{"measurement": "IC50", "setting": "[1]", "value": 929, "unit": "µM"}, {"measurement": "IC50", "setting": "[2]", "value": 9.2, "unit": "µM"}, {"measurement": "IC50", "setting": "[3]", "value": 82.9, "unit": "µM"}]}, {"molecule": "CN(Cc1c[nH]c2nc(N)nc(N)c12)c1ccc(Cl)c(Cl)c1", "values": [{"measurement": "IC50", "setting": "[1]", "value": 28.3, "unit": "µM"}, {"measurement": "IC50", "setting": "[2]", "value": 1, "unit": "µM"}, {"measurement": "IC50", "setting": "[3]", "value": 3, "unit": "µM"}]}, {"molecule": "CN(Cc1c[nH]c2nc(N)nc(N)c12)c1cccc2ccccc12", "values": [{"measurement": "IC50", "setting": "[1]", "value": 209, "unit": "µM"}, {"measurement": "IC50", "setting": "[2]", "value": 0.87, "unit": "µM"}, {"measurement": "IC50", "setting": "[3]", "value": 8.2, "unit": "µM"}]}]}
